One series concerns the target T1, human PXR (Homo sapiens, UniProt O75469).
T1 construct: host or cells: DPX-2 cell line (derived from HepG2)
T1 sequence (O75469 1-434): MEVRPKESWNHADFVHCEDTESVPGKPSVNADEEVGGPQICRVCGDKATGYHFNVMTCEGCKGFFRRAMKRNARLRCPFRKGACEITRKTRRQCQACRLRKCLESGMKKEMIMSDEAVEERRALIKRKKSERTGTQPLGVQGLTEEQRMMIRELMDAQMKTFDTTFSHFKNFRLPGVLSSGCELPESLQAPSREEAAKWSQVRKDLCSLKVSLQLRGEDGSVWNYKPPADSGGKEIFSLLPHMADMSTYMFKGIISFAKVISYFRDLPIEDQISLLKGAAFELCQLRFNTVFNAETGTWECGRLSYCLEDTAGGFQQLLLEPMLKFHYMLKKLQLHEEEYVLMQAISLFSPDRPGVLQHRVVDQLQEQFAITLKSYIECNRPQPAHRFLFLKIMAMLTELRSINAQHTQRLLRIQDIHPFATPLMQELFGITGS
Put plainly: PXR assay: PXR mediated CYP3A4 induction in DPX-2 cell line. It is filed as cell-based. To be noted: DPX-2 cells. On the procedure: D. Experimental Protocol for PXR Assay
The propensity for PXR mediated CYP3A4 induction is assessed using the DPX-2 cell line in vitro. This cell line, which has been licensed from Puracyp Inc. was derived from HepG2 cells and has been stably transfected with genes encoding human PXR as well as a modified luciferase reporter linked to the CYP3A4 promoter region and related distal and proximal enhancers.
The assay is run in 384 well format and each test article is administered in 11 doses ranging from 0.1 to 60 μM. On day 1, DPX-2 cells which have previously been expanded in-house and cryopreserved are thawed and seeded in tissue culture plates. The following day, media is changed and cells are cultured in media containing test article, vehicle control or the positive control compound, the clinically validated CYP3A4 inducer rifampicin. Cells are cultured in the presence of test article for 48 hours and then cell viability is assessed using fluorescence based assay (Cell Titer-Fluor, Promega) with an EnVision Plate Reader (PerkinElmer). Subsequently, CYP3A4 transactivation, which is proportional to luciferase activity, is measured by reading luminescense using the Promega One-Glo reagent system using the same plate reader.
Data processing within the Genedata software package allows reporting of max fold induction compared to vehicle control, an EC50 value for CYP3A4 inducers and an 11 point-dose response curve.

The target of a further series is T2, F508del-CFTR (Homo sapiens, UniProt P13569, DEL508-508).
T2 construct: expressed in transfected cells
T2 sequence (P13569 with tags, fused parts or gaps DEL508-508): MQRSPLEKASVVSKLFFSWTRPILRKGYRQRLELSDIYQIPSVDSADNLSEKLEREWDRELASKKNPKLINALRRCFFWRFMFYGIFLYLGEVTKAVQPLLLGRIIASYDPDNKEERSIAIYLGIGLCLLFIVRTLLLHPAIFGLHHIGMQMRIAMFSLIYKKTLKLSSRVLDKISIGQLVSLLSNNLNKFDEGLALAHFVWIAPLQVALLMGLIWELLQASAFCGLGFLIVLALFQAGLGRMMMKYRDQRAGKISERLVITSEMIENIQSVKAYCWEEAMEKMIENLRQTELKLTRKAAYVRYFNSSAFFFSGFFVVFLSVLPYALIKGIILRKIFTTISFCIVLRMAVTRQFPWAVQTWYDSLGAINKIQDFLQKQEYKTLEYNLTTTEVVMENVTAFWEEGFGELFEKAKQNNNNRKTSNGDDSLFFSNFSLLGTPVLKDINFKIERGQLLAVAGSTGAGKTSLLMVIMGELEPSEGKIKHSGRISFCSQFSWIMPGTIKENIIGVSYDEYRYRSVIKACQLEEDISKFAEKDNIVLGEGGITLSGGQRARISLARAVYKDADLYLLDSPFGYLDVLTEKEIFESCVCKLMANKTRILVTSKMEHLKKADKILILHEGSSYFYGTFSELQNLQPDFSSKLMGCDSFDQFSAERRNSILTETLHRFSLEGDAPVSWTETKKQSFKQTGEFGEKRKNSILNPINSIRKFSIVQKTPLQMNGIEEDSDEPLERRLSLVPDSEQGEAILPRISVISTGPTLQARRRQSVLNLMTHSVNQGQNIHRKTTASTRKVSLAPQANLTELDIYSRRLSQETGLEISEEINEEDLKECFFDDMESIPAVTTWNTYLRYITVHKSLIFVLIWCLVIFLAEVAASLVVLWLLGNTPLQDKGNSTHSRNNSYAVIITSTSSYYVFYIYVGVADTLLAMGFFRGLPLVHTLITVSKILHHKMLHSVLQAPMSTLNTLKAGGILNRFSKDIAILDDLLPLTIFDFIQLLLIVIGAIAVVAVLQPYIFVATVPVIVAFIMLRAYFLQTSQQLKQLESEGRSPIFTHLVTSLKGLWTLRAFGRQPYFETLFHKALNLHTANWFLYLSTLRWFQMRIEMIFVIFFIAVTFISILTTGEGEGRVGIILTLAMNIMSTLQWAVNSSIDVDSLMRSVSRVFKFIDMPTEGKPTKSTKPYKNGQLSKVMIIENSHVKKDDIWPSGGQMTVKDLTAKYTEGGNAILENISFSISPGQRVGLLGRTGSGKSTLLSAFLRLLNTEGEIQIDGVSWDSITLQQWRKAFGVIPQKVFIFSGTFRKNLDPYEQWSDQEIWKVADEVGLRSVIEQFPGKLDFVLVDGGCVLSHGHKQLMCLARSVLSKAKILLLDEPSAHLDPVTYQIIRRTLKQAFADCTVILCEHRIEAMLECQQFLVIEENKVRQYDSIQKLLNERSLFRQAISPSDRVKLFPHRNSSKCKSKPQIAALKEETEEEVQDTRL
Description: Membrane potential optical (FLIPR) assay for F508del-CFTR modulators in NIH 3T3 cells. The format is cell-based. To be noted: NIH 3T3 cells expressing F508del; assay A1; read-out: CFTRdF508 Cor 3T3 FLIPR 384 CFTRdF508 MP 3T3 770 EC50. The source says: Membrane Potential Optical Methods for Assaying Properties of F508del-CFTR Modulators
The assay utilizes fluorescent voltage sensing dyes to measure changes in membrane potential using a fluorescent plate reader (e.g., FLIPR III, Molecular Devices, Inc.) as a readout for increase in functional F508del in NIH 3T3 cells. The driving force for the response is the creation of a chloride ion gradient in conjunction with channel activation and concurrent with compound treatment by a single liquid addition step after the cells have previously been loaded with a voltage sensing dye.
A1. Identification of F508del-CFTR Modulators
To identify modulators of F508del, a fluorescence based HTS assay format was developed. This HTS assay utilizes fluorescent voltage sensing dyes to measure changes in membrane potential on the FLIPR III as a measurement for increase in gating (conductance) of F508del NIH 3T3 cells. The driving force for the response is the creation of a chloride ion gradient in conjunction with channel activation and concurrent with compound treatment by a single liquid addition step after the cells have previously been loaded with a voltage sensing dye.
Bath Solution #1: (in mM) NaCl 160, KCl 4.5, CaCl2 2, MgCl2 1, HEPES 10, pH 7.4 with NaOH, Glucose 10.
Chloride-free bath solution: Chloride salts in Bath Solution #1 (above) are substituted with gluconate salts.
NIH3T3 mouse fibroblasts stably expressing F508del were used for optical measurements of membrane potential. The cells were maintained at 37° C. in 5% CO2 and 90% humidity in Dulbecco's modified Eagle's medium supplemented with 2 mM glutamine, 10% fetal bovine serum, 1×NEAA, β-ME, 1× pen/strep, and 25 mM HEPES in 175 cm^2 culture flasks. For all optical assays, the cells were seeded at 12,000 cells/well in 384-well matrigel-coated plates and cultured for 18-24 hrs at 37° C. for the potentiator assay. For the correction assay, the cells were cultured at 37° C. with and without compounds for 18-24 hours.

Molecules are shown by their SMILES.

As a reminder, the EC50 is the concentration that produces a half-maximal response. Turning to `Cc1nn(C)cc1S(=O)(=O)NC(=O)c1ccc(-n2ccc(OCC3(C(F)(F)F)CC3)n2)nc1N1CC(C(C)(C)C)CC1(C)C` (racemic) [Compound 40, 2-(4-tert-Butyl-2,2-dimethyl-pyrrolidin-1-yl)-N-(1,3-dimethylpyrazol-4-yl)sulfonyl-6-[3-[[1-(trifluoromethyl)cyclopropyl]methoxy]pyrazol-1-yl]pyridine-3-carboxamide], the “CYP3A4 Induction-PXR human PXR internal Max % Activity” value at human PXR came out at 13%. Besides, the EC50 at F508del-CFTR was determined as 80 nM.
The like results for `Cc1nn(C)cc1S(=O)(=O)NC(=O)c1ccc(-n2ccc(OCC3(C(F)(F)F)CC3)n2)nc1N1CC(C(C)C)CC1(C)C` (racemic) [Compound 41, N-(1,3-dimethylpyrazol-4-yl)sulfonyl-2-(4-isopropyl-2,2-dimethyl-pyrrolidin-1-yl)-6-[3-[[1-(trifluoromethyl)cyclopropyl]methoxy]pyrazol-1-yl]pyridine-3-carboxamide] were, in that order, 4% and 120 nM.
Turning to `Cc1nn(C)cc1S(=O)(=O)NC(=O)c1ccc(-n2ccc(OCC3(C(F)(F)F)CC3)n2)nc1N1C[C@@H](C(C)C)CC1(C)C` (single isomer, unassigned) [Compound 46, N-(1,3-dimethylpyrazol-4-yl)sulfonyl-2-(4-isopropyl-2,2-dimethyl-pyrrolidin-1-yl)-6-[3-[[1-(trifluoromethyl)cyclopropyl]methoxy]pyrazol-1-yl]pyridine-3-carboxamide], the half-maximal effective concentration (EC50) at F508del-CFTR stood at 390 nM.
Still for that read-out and setting: the figure for `Cc1nn(C)cc1S(=O)(=O)NC(=O)c1ccc(-n2ccc(OCC3(C(F)(F)F)CC3)n2)nc1N1C[C@@H](C(C)C)CC1(C)C` (single isomer, unassigned) [Compound 47, N-(1,3-dimethylpyrazol-4-yl)sulfonyl-2-(4-isopropyl-2,2-dimethyl-pyrrolidin-1-yl)-6-[3-[[1-(trifluoromethyl)cyclopropyl]methoxy]pyrazol-1-yl]pyridine-3-carboxamide] is 60 nM.
As to `Cc1nn(C)cc1S(=O)(=O)NC(=O)c1ccc(-n2ccc(OCC3(C(F)(F)F)CC3)n2)nc1N1CC(C(C)(C)C)CC1(C)C` (single isomer, unassigned) [Compound 53, 2-(4-tert-butyl-2,2-dimethyl-pyrrolidin-1-yl)-N-(1,3-dimethylpyrazol-4-yl)sulfonyl-6-[3-[[1-(trifluoromethyl)cyclopropyl]methoxy]pyrazol-1-yl]pyridine-3-carboxamide], the “CYP3A4 Induction-PXR human PXR internal Max % Activity” value at human PXR is 7%. The half-maximal effective concentration (EC50) at F508del-CFTR was 390 nM.
As for `C[C@@H]1CN(c2nc(-n3ccc(OC4CC4)n3)ccc2C(=O)NS(=O)(=O)c2cnn(C)c2)C(C)(C)C1` [Compound 22, 6-[3-(Cyclopropoxy)pyrazol-1-yl]-N-(1-methylpyrazol-4-yl)sulfonyl-2-[(4S)-2,2,4-trimethylpyrrolidin-1-yl]pyridine-3-carboxamide], the half-maximal effective concentration (EC50) on F508del-CFTR was found to be 2100 nM.
Consider `Cc1c(S(=O)(=O)NC(=O)c2ccc(-n3ccc(OCC4(C)CC4(F)F)n3)nc2N2C[C@@H](C)CC2(C)C)cnn1C` (stereo partly drawn) [Compound 24, 6-[3-[(2,2-Difluoro-1-methyl-cyclopropyl)methoxy]pyrazol-1-yl]-N-(1,5-dimethylpyrazol-4-yl)sulfonyl-2-[(4S)-2,2,4-trimethylpyrrolidin-1-yl]pyridine-3-carboxamide], for which the “CYP3A4 Induction-PXR human PXR internal Max % Activity” value at human PXR is reported as 6%. Further, the EC50 on F508del-CFTR amounted to 710 nM.
Turning to `[2H]C([2H])([2H])[C@@H]1CN(c2nc(-n3ccc(OCC(C)(C)C(F)(F)F)n3)ccc2C(=O)NS(=O)(=O)c2cn(C)nc2C)C(C)(C)C1([2H])[2H]` [Compound 29, (S)—N-((1,3-dimethyl-1H-pyrazol-4-yl)sulfonyl)-2-(2,2-dimethyl-4-(methyl-d3)pyrrolidin-1-yl-3,3-d2)-6-(3-(3,3,3-trifluoro-2,2-dimethylpropoxy)-1H-pyrazol-1-yl)nicotinamide], the EC50 at F508del-CFTR was found to be 110 nM.
For the molecule `Cc1c(S(=O)(=O)NC(=O)c2ccc(-n3ccc(OCC(C4CC4)C4CC4)n3)nc2N2C[C@@H](C)CC2(C)C)cnn1C` [Compound 33, 6-[3-(2,2-dicyclopropylethoxy)pyrazol-1-yl]-N-(1,5-dimethylpyrazol-4-yl)sulfonyl-2-[(4S)-2,2,4-trimethylpyrrolidin-1-yl]pyridine-3-carboxamide], the “CYP3A4 Induction-PXR human PXR internal Max % Activity” value on human PXR is reported as 5%. Further, the EC50 on F508del-CFTR is 370 nM.
The like results for `Cc1nn(C)cc1S(=O)(=O)NC(=O)c1ccc(-n2ccc(OCC3(C(F)(F)F)CC3)n2)nc1N1CC(C)CC1(C)C` (centres unmarked) [Compound 42, N-(1,3-dimethylpyrazol-4-yl)sulfonyl-6-[3-[[1-(trifluoromethyl)cyclopropyl]methoxy]pyrazol-1-yl]-2-(2,2,4-trimethylpyrrolidin-1-yl)pyridine-3-carboxamide] were, in that order, 16% and 610 nM.
The like results for `Cc1nn(C)cc1S(=O)(=O)NC(=O)c1ccc(-n2ccc(OCC3(C(F)(F)F)CC3)n2)nc1N1CC(C)CC12CCC2` (centres unmarked) [Compound 43, N-(1,3-dimethylpyrazol-4-yl)sulfonyl-2-(7-methyl-5-azaspiro[3.4]octan-5-yl)-6-[3-[[1-(trifluoromethyl)cyclopropyl]methoxy]pyrazol-1-yl]pyridine-3-carboxamide] were, in that order, 4% and 220 nM.
In the case of `Cc1nn(C)cc1S(=O)(=O)NC(=O)c1ccc(-n2ccc(OCC3(C(F)(F)F)CC3)n2)nc1N1CC(C)CC12CC2` (centres unmarked) [Compound 44, N-(1,3-dimethylpyrazol-4-yl)sulfonyl-2-(6-methyl-4-azaspiro[2.4]heptan-4-yl)-6-[3-[[1-(trifluoromethyl)cyclopropyl]methoxy]pyrazol-1-yl]pyridine-3-carboxamide], on F508del-CFTR, the EC50 was determined as 390 nM.
On the same count and under the same terms, the figure for `CCC1CN(c2nc(-n3ccc(OCC4(C(F)(F)F)CC4)n3)ccc2C(=O)NS(=O)(=O)c2cn(C)nc2C)C(C)(C)C1` (centres unmarked) [Compound 49, N-(1,3-dimethylpyrazol-4-yl)sulfonyl-2-(4-ethyl-2,2-dimethyl-pyrrolidin-1-yl)-6-[3-[[1-(trifluoromethyl)cyclopropyl]methoxy]pyrazol-1-yl]pyridine-3-carboxamide] is 190 nM.
As for `C[C@@H]1CN(c2nc(-n3ccc(OCCC4(C(F)(F)F)CC4)n3)ccc2C(=O)NS(=O)(=O)c2cn(C)nc2C(F)(F)F)C(C)(C)C1` [Compound 55, N-[1-methyl-3-(trifluoromethyl)pyrazol-4-yl]sulfonyl-6-[3-[2-[1-(trifluoromethyl)cyclopropyl]ethoxy]pyrazol-1-yl]-2-[(4S)-2,2,4-trimethylpyrrolidin-1-yl]pyridine-3-carboxamide], the “CYP3A4 Induction-PXR human PXR internal Max % Activity” value at human PXR was found to be 9%. On F508del-CFTR, the EC50 was determined as 100 nM.
In the case of `Cc1nn(C)cc1S(=O)(=O)NC(=O)c1ccc(-n2ccc(OCCC3C4(CC4)C34CC4)n2)nc1N1C[C@@H](C)CC1(C)C` [Compound 56, N-(1,3-Dimethylpyrazol-4-yl)sulfonyl-6-[3-(2-dispiro[2.0.2.1]heptan-7-ylethoxy)pyrazol-1-yl]-2-[(4S)-2,2,4-trimethylpyrrolidin-1-yl]pyridine-3-carboxamide], the “CYP3A4 Induction-PXR human PXR internal Max % Activity” value on human PXR was found to be 11%.

These data come from US10793547B2, “Modulator of the cystic fibrosis transmembrane conductance regulator, pharmaceutical compositions, methods of treatment, and process for making the modulator” (Vertex Pharmaceuticals Incorporated, priority 2016, dated 2020).
